Data reported in patent US12102631B2, “Quinolylnitrones for the treatment and prevention of a cerebral stroke or ischaemia” (ISQUAEMIA BIOTECH, S.L., priority 2018, dated 2024).

Key:
[1] = tested on: global cerebral ischemia in Wistar rats; experiment: Neuronal apoptosis by TUNEL assay after global cerebral ischemia; type: in vivo; settings: R5 d
Description: (§1) Animal model of global cerebral ischemia, experimental design and administration of nitrones. Transient forebrain ischemia was induced in adult male Wistar rats (10-12 weeks, Charles River) by the standard four-vessel occlusion model (4V0) previously described.^44,56 Briefly, both vertebral arteries were irreversibly occluded by electrocoagulation under anesthesia with a mixture of atropine, ketamine and diazepam (0.25, 62.5, and 5 mg/kg, respectively) delivered by intraperitoneal injection. After 24 h, ischemia was induced by carotid occlusion with atraumatic clips for 15 min and then clips were removed from the carotid arteries to allow reperfusion. Body temperature of 37° C. was maintained. The animals were studied after 5 days of reperfusion (R5 d). We performed a power analysis (http://www.biomath.info/power/ttest.htm) to determine the sample size. We chose the significant level at 0.05, the power set at 0.8 (80%), and a ratio of control/treated group of 2:1, and the sample size obtained was 10 subjects per control group and <6 subjects per treated group. A total of 26 ischemic animals were used for the study of nitrone 23 efficacy. Here 6 animals were treated with 1.5 mg/kg of nitrone 23, or 40 mg/kg of compound 2, and 14 animals were included in control (vehicle) group, two of which died after 2 days. The treatments were performed with allocated concealment, assigning a random order to each vehicle or treated animal by computer-generated randomization program. Ischemic animals were treated with nitrone 23 diluted in 10% ethanol in saline as vehicle by intraperitoneal injection when the carotid arteries were unclamped for reperfusion. […]
TUNEL assay. Apoptotic neurons within brain sections were detected using the Terminal deoxynucleotidyl transferase-mediated dUTP Nick-End Labeling (TUNEL) assay (Promega). […]
The hippocampal CA1 subfield and cerebral and lateral cortex fields from a given section were analyzed with fluorescence microscopy (40× objective) to count the number of apoptotic nuclei (green). […]

[2] = tested on: global cerebral ischemia in Wistar rats; experiment: Neuronal death by Fluoro-Jade B staining after global cerebral ischemia; type: in vivo; settings: R5 d
Description: as §1, with “program.” for “program. Ischemic animals were treated with nitrone 23 diluted in 10% ethanol in saline as vehicle by intraperitoneal injection when the carotid arteries were unclamped for reperfusion.”
Neuronal death evaluation. Neuronal death was evaluated by Fluoro-Jade-B staining. Brain cryosections (10 μm thick) from ischemic animals that underwent reperfusion for 5 days were used after fixation to detect neuronal death by Fluoro-Jade-B staining,^44 and visualized by fluorescence microscopy. Labeled (dead) neuronal cells (in green) were counted as in TUNEL assay (see below). Data from different animals of each experimental group were independently analyzed by two observers, and treatment information was blindly performed throughout the study. […]

tMCAO in C57BL/6 mice = settings: 40 mg/kg; data recently reported by the group; cited from earlier work
[3] = tested on: global cerebral ischemia in Wistar rats; experiment: Neurological deficit score after transient global cerebral ischemia (four-vessel occlusion); type: in vivo; settings: 5 days of reperfusion, vehicle 3.3±0.21
Description: as §1, with “group.” for “group. A total of 26 ischemic animals were used for the study of nitrone 23 efficacy. Here 6 animals were treated with 1.5 mg/kg of nitrone 23, or 40 mg/kg of compound 2, and 14 animals were included in control (vehicle) group, two of which died after 2 days. The treatments were performed with allocated concealment, assigning a random order to each vehicle or treated animal by computer-generated randomization program. Ischemic animals were treated with nitrone 23 diluted in 10% ethanol in saline as vehicle by intraperitoneal injection when the carotid arteries were unclamped for reperfusion.”
Animals were subjected to 15 min of cerebral ischemia, treated with vehicle or QN 23 at the onset of reperfusion period, and studied after 5 days of reperfusion (R5 d). We evaluated the neurological deficit score (NDS) to assess the effect of QN 23 following global ischemia-reperfusion in R5 d animals. […]

[4] = 1.5 mg/kg i.p., compared with vehicle

Structure (SMILES)	effect on neuronal apoptosis (in words) ([1]; 40 mg/kg)	effect on neuronal death, CA1 and cortical regions (in words) ([2]; 40 mg/kg)	size of the ischemic lesion (in words) (tMCAO in C57BL/6 mice)	neurological deficit score (NDS) ([3]; 40 mg/kg)	decrease of neuronal apoptosis, CA1 region ([1]; 1.5 mg/kg) [%]	decrease of neuronal apoptosis, cerebral cortex ([1]; 1.5 mg/kg) [%]	decrease of neuronal death, CA1 region [2, 4] [%]	decrease of neuronal death, cortical region [2, 4] [%]	neurological deficit score (NDS) ([3]; 1.5 mg/kg i.p. at onset of reperfusion)
CC(C)(C)/[N+]([O-])=C/c1ccc(S(=O)(=O)O)cc1S(=O)(=O)O [Compound 2, sodium (Z)-4-((tert-butyloxidoazanylidene)methyl)benzene-1,3-disulfonate, reference compound]	induced a decrease of neuronal apoptosis, although it was not significant	did not produce a significant effect	did not reduce the size of the ischemic lesion	2.5±0.28	–	–	–	–	–
COc1ccc2nc(Cl)c(/C=[N+](\[O-])C(C)(C)C)cc2c1 [Compound 23, (Z)—N-tert-Butyl-1-(2-chloro-6-methoxyquinolin-3-yl)methanimine oxide]	–	–	–	–	39	84	33	90	2.0±0.44
